# ChEMBL document CHEMBL3861981 (J Med Chem, 2016)
# What was measured:
# Hepatitis C virus = experiment: Antiviral activity against HCV genotype 1b Con1 expressing NS3 protease infected in human Huh7.5 cells assessed as reduction in viral RNA replication by luciferase reporter gene assay; type: functional, cell-based, Hepacivirus hominis; settings: genotype 1b Con1, Huh-7
# [1] = Half life in human liver microsomes; type: ADME
structure (smiles),measurement,setting,value
COc1cnc(O[C@@H]2C[C@@H](C(=O)N[C@]3(C(=O)NS(=O)(=O)C4CC4)C[C@H]3C3CC3)N(C(=O)[C@@H](NC(=O)OC3CCCC3)C(C)(C)C)C2)c2cc(Cl)ccc12,EC50,Hepatitis C virus,19.8 nM
same,half-life,[1],0.65 h
COc1cnc(O[C@@H]2C[C@@H](C(=O)N[C@]3(C(=O)NS(=O)(=O)C4CC4)C[C@H]3C3CC3)N(C(=O)[C@@H](NC(=O)OC(C)C)C(C)(C)C)C2)c2cc(Cl)ccc12,EC50,Hepatitis C virus,66.7 nM
same,half-life,[1],0.583 h
COc1cnc(O[C@@H]2C[C@@H](C(=O)N[C@]3(C(=O)NS(=O)(=O)C4CC4)C[C@H]3C3CC3)N(C(=O)[C@@H](NC(=O)O[C@H](C)C(F)(F)F)C3CCC3)C2)c2cc(Cl)ccc12,EC50,Hepatitis C virus,8.6 nM
same,half-life,[1],1.85 h
COc1cnc(O[C@@H]2C[C@@H](C(=O)N[C@]3(C(=O)NS(=O)(=O)C4CC4)C[C@H]3C3CC3)N(C(=O)[C@@H](NC(=O)OC3(C)CCCC3)C(C)(C)C)C2)c2cc(Cl)ccc12,EC50,Hepatitis C virus,3.7 nM
same,half-life,[1],0.4 h
CC[C@@H](C)[C@H](NC(=O)O[C@H](C)C(F)(F)F)C(=O)N1C[C@H](Oc2ncc(OC)c3ccc(Cl)cc23)C[C@H]1C(=O)N[C@]1(C(=O)NS(=O)(=O)C2CC2)C[C@H]1C1CC1,EC50,Hepatitis C virus,6.3 nM
same,half-life,[1],1.63 h
COc1cnc(O[C@@H]2C[C@@H](C(=O)N[C@]3(C(=O)NS(=O)(=O)C4CC4)C[C@H]3C3CC3)N(C(=O)[C@@H](NC(=O)O[C@H](C)C(F)(F)F)C3CC3)C2)c2cc(Cl)ccc12,EC50,Hepatitis C virus,13.3 nM
same,half-life,[1],3.33 h
COc1cnc(O[C@@H]2C[C@@H](C(=O)N[C@]3(C(=O)NS(=O)(=O)C4CC4)C[C@H]3C3CC3)N(C(=O)[C@@H](NC(=O)O[C@H](C)C(F)(F)F)C(C)C)C2)c2cc(Cl)ccc12,EC50,Hepatitis C virus,8 nM
same,half-life,[1],2.58 h
COc1cnc(O[C@@H]2C[C@@H](C(=O)N[C@]3(C(=O)NS(=O)(=O)C4CC4)C[C@H]3C(C)C)N(C(=O)[C@@H](NC(=O)OC(C)(C)C)C(C)(C)C)C2)c2cc(Cl)ccc12,EC50,Hepatitis C virus,> 100 nM
same,half-life,[1],1.38 h
COc1cnc(O[C@@H]2C[C@@H](C(=O)N[C@]3(C(=O)NS(=O)(=O)C4CC4)C[C@H]3C3CC3)N(C(=O)[C@@H](NC(=O)OC3CCC3)C(C)(C)C)C2)c2cc(Cl)ccc12,EC50,Hepatitis C virus,16.3 nM
same,half-life,[1],0.967 h
COc1cnc(O[C@@H]2C[C@@H](C(=O)N[C@]3(C(=O)NS(=O)(=O)C4CC4)C[C@H]3C3CC3)N(C(=O)[C@@H](NC(=O)O[C@@H](C)C(F)(F)F)C(C)(C)C)C2)c2cc(Cl)ccc12,EC50,Hepatitis C virus,146 nM
same,half-life,[1],> 3.33 h
COc1cnc(O[C@@H]2C[C@@H](C(=O)N[C@]3(C(=O)NS(=O)(=O)C4CC4)C[C@H]3C3CC3)N(C(=O)[C@@H](NC(=O)OCC(F)(F)F)C(C)(C)C)C2)c2cc(Cl)ccc12,EC50,Hepatitis C virus,48.6 nM
COc1cnc(O[C@@H]2C[C@@H](C(=O)N[C@]3(C(=O)NS(=O)(=O)C4CC4)C[C@H]3C3CC3)N(C(=O)[C@@H](NC(=O)OC(C)(C)C(F)F)C(C)(C)C)C2)c2cc(Cl)ccc12,EC50,Hepatitis C virus,58.2 nM
same,half-life,[1],2 h
CCC(CC)[C@H](NC(=O)O[C@H](C)C(F)(F)F)C(=O)N1C[C@H](Oc2ncc(OC)c3ccc(Cl)cc23)C[C@H]1C(=O)N[C@]1(C(=O)NS(=O)(=O)C2CC2)C[C@H]1C1CC1,EC50,Hepatitis C virus,7.2 nM
same,half-life,[1],2 h
C=C(C)[C@@H]1C[C@]1(NC(=O)[C@@H]1C[C@@H](Oc2ncc(OC)c3ccc(Cl)cc23)CN1C(=O)[C@@H](NC(=O)OC(C)(C)C)C(C)(C)C)C(=O)NS(=O)(=O)C1CC1,EC50,Hepatitis C virus,12.5 nM
same,half-life,[1],0.0833 h
